Laboratory results from ChEMBL document CHEMBL1938390, “Pyrazolopyridine inhibitors of B-Raf(V600E). Part 3: an increase in aqueous solubility via the disruption of crystal packing” (Bioorg Med Chem Lett, 2012).
In brackets after ≈: the same amount, converted by molar mass.

Columns and labels:
[1] = biological target: T1, Serine/threonine-protein kinase B-raf (Homo sapiens, UniProt P15056, V600E); test: Inhibition of full-length B-Raf V600E mutant
[2] = biological target: T1, Serine/threonine-protein kinase B-raf; test: Inhibition of B-Raf V600E mutant-mediated Erk phosphorylation in human MALME-3M cells; assay type: cell-based
[3] = Solubility of the compound at pH 6.5; assay type: physicochemical; settings: buffer
[4] = Solubility of the compound at pH 7.4; assay type: physicochemical; settings: buffer

T1 sequence (P15056 2-766 V600E limits assumed): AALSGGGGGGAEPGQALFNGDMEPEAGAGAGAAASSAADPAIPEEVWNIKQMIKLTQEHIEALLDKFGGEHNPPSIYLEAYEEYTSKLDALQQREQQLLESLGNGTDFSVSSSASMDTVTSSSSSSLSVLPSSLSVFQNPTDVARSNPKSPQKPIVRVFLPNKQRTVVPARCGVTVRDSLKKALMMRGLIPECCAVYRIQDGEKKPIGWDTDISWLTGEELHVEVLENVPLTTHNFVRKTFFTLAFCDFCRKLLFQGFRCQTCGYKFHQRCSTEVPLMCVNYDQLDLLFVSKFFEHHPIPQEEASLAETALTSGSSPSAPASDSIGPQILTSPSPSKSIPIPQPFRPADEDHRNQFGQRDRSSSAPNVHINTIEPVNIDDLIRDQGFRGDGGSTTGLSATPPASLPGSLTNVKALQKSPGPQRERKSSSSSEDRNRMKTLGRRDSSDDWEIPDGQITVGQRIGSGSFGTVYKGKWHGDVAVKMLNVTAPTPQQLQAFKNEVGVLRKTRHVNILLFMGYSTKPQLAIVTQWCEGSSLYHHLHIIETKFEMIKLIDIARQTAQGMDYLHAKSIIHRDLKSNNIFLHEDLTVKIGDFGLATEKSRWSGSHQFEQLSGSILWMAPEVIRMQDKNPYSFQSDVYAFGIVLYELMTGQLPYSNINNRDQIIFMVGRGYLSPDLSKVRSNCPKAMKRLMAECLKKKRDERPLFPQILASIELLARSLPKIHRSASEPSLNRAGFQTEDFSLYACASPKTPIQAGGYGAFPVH

| IC50 [1] [nM] | IC50 [2] [nM] | solubility [3] [µg/mL] | solubility [4] [µg/mL] | SMILES |
| --- | --- | --- | --- | --- |
| 2.2 | 19 | < 1 | 2 (≈ 4.53 µM) | CCCS(=O)(=O)Nc1ccc(F)c(C(=O)Nc2cnc3[nH]nc(OC)c3c2)c1Cl |
| 14 | 89 | 6 (≈ 13.7 µM) |  | CCCS(=O)(=O)Nc1ccc(F)c(C(=O)Nc2cnc3[nH]nc(C(C)C)c3c2)c1F |
|  |  | < 1 | 2 (≈ 4.53 µM) | CCCS(=O)(=O)Nc1ccc(Cl)c(C(=O)Nc2cnc3[nH]nc(OC)c3c2)c1F |
| 0.6 | 51 | 130 (≈ 277 µM) | 265 (≈ 564 µM) | O=C(Nc1cnc2[nH]nc(C3CC3)c2c1)c1c(F)ccc(NS(=O)(=O)CCCF)c1Cl |
|  |  | 4 (≈ 9.4 µM) | 9 (≈ 21.2 µM) | CCCS(=O)(=O)Nc1ccc(F)c(C(=O)Nc2cnc3[nH]nc(OC)c3c2)c1F |
| 2.7 | 23 | 1 (≈ 2.3 µM) | 4 (≈ 9.19 µM) | CCCS(=O)(=O)Nc1ccc(F)c(C(=O)Nc2cnc3[nH]nc(C4CC4)c3c2)c1F |
| 2 | 18 | 1 (≈ 2.15 µM) | < 1 | CC(C)CS(=O)(=O)Nc1ccc(F)c(C(=O)Nc2cnc3[nH]nc(C4CC4)c3c2)c1Cl |
| 3.8 | 33 | 54 (≈ 119 µM) | 127 (≈ 281 µM) | CCCS(=O)(=O)Nc1ccc(F)c(C(=O)Nc2cnc3[nH]nc(C4CC4)c3c2)c1Cl |
